Assay results reported in article PMC3942691, “The Dipeptide Monoester Prodrugs of Floxuridine and Gemcitabine—Feasibility of Orally Administrable Nucleoside Analogs” (Pharmaceuticals, 2014).
Read-outs that look alike come from different tables or passages of the source.

Tests used:
[1] = Chemical stability in 0.01 N HCl, SIF (pH 6.0) and pH 7.4 phosphate buffer; type: physicochemical
Experimental: The nonenzymatic hydrolysis of the prodrugs was determined as described above, except that each well contained pH 7.4 phosphate buffers (10 mmol/L) instead of cell homogenate.
The experiments concerning drug and their prodrug stability were performed at 37 °C in 0.01 N HCl, SIF (pH 6.0), and pH 7.4 phosphate buffer. […] Prodrug metabolites such as floxuridine, 5-fluorouracil (5-FU), gemcitabine, 2′-deoxy-2′,2′-difluorouridine, uracil, and cytosine were monitored along with prodrug disappearance in this experiment.

[2] = test system: mouse jejunum; test: In situ single-pass intestinal perfusion in mice (Peff); type: in vivo; details: for Peff, mouse perfusion: 100 µM; for fold higher membrane permeability than parent drug: in situ
Experimental: The perfusion buffer (pH6.0) consisted of 145 mM NaCl, 0.5 mM MgCl2, 1 NaH2PO4, 1 mM CaCl2, 3 mM KCl, 5 mM glucose, and 5 mM MES. The pH of the buffer was adjusted to pH6.0. This perfusion buffer also contained phenol-red (14 µM) as a non-absorbable marker for water flux measurements.
(§1) All animal experiments were conducted using protocols approved by the University of Michigan Committee of Use and Care of Animals (UCUCA). Female BALB/c mice (Charles River, IN, USA) weighing 20–25 g were used for all perfusion studies. Prior to each experiment, mice were fasted overnight with free access to water.
The procedure for the in situ single-pass intestinal perfusion is previously reported. Briefly, mice were anesthetized with an i.m. injection of ketamine-xylazine mixture (ketamine: 80–120 mg/kg, xylazine: 5–10 mg/kg) and placed on a heated pad maintained at 37 °C. The abdomen was opened by a midline incision and a jejunal segment (approximately 10 cm) was carefully exposed to cannulate both ends with flexible PVC tubing (2.06 mm i.d., Fisher Scientific Inc., Pittsburgh, PA, USA). All solutions were incubated in a 37 °C water-bath. The isolated segment was rinsed with blank perfusion buffer to clean out any residual debris.
(§2) At the start of the study, the test compound (100 µM) in perfusion buffer (pH 6.0) including phenol red was perfused through the intestinal segment (Watson-Marlow Pump 323S, Watson-Marlow Bredel Inc., Wilimington, MA, USA), at the flow rate of 0.1 mL/min. The perfusion buffer was perfused for 30 min to assure steady-state and samples were taken in every 10 min for 90 min. At the end of perfusion, blood samples were collected by cardiac puncture. Blood samples with heparin were centrifuged at 1,000 × g for 10 min at 4 °C to collect plasma samples for LC-MS analysis. Following the termination of the experiment, the length of each perfused intestinal segment was measured.
The net water flux in the mouse perfusion studies was determined using phenol red (14 µM), a non-absorbed and non-metabolized marker. The measured Cout/Cin ratio of test compound was corrected for water flux according to the following equation: [drawing 1] where Cin phenol red and Cout phenol red are equal to the concentration of phenol red in the inlet and the outlet samples, respectively. The effective permeability (Peff; cm/s) through the mouse intestinal wall in the single-pass intestinal perfusion studies was determined according to the following equation: [drawing 2] where Q is the perfusion buffer flow rate (0.1 mL/min), C′out/C′in is the ratio of the outlet/inlet concentration of test compound that is adjusted for water transport, R is the radius of the intestinal segment (set to 0.1 cm), and L is the length of the perfused intestinal segment.
The stability samples of prodrugs and their metabolites, and perfusion samples were determined on an Agilent HPLC system (Agilent Technologies, Santa Clara, CA, USA). The HPLC system consisted of Agilent pumps (1100 series), an Agilent autosampler (1200 series), and an Agilent UV-Vis detector (1100 series) controlled by Chemstation® 32 software (version B.01.03). Samples were resolved in an Agilent Eclipse Plus C18 reverse-phase column (3.5 µm, 4.6 × 75 mm) equipped with a guard column. The mobile phase consisted of 0.1% TFA/water (Solvent A) and 0.1% TFA/acetonitrile (Solvent B) with the solvent B gradient changing from 0%–56% at a rate of […] during a 15 min run for gemcitabine and gemcitabine prodrugs. Standard curves generated for each prodrug and their parent drug were utilized for quantitation of integrated area under peaks. The detection wavelength was 254 nm and spectra were acquired in the 220–380 nm wavelength range. The detection wavelength for phenol red was 430 nm.

[3] = Drug concentration and species in mouse plasma after in situ perfusion; type: in vivo; details: for parent drug, share of totally observed amount in plasma: parent drug perfused; for parent drug, share of totally observed amount in plasma / first metabolite (5-FU or cytosine) in plasma: mouse plasma after in situ perfusion; for prodrug form, share of totally observed amount in plasma: mouse plasma at 2 h following in situ perfusion
Experimental: as §1, §2
(§3) The LC-MS analytical method of 5′-mono amino acid ester prodrugs of floxuridine has been reported previously. The LC-MS analysis of dipeptide monoester prodrugs of floxuridine and gemcitabine along with their parent drugs was modified and performed in a similar manner. Briefly, LC-MS analysis of the uptake drug amount was performed in triplicate on LCMS-2010EV (Shimadzu Scientific Instruments, Kyoto, Japan) equipped with an ESI (electrospray ionization) source. The Shimadzu LC-MS system consisting of Shimadzu LC-20AD pumps with DGU-20A in-line vacuum degasser units, and SIL-20A HT autosampler with an InertSustain C-18, 2.1 × 50 mm, 3 µm particle size, (GL Sciences, Torrance, CA, USA) was used for the separation and the effluent from the column was introduced directly to the ionization source. The system was controlled by Shimadzu LCMS solution software (version 3) to collect and process data. All samples were run with Solvent A and Solvent B with Solvent B gradient changing from 0%–90% at a rate of 13.8%/min over a 22 min run. The mobile phase consisted of 0.1% TFA/water (Solvent A) and 0.1% TFA/acetonitrile (Solvent B) for gemcitabine, gemcitabine prodrug and floxuridine prodrug. The mobile phase consisted of 0.1% ammonium hydroxide/water (Solvent A) and 0.1% ammonium hydroxide /acetonitrile (Solvent B) for floxuridine. The ESI probe was operated with a detector voltage of 1.5 kV, CDL temperature of 250 °C, heat block of 200 °C, and nebulizing gas flow of 1.2 mL/min in positive mode for gemcitabine prodrugs and their metabolites. The drying gas was N2 delivered at 0.1 MPa.

[4] = test system: AsPC-1 cells; test: Uptake study in AsPC-1 cells; type: cell-based; details: 0.1 mM, 1 h
Experimental: Caco-2, Panc-1, and AsPC-1 cells were grown on a 6-well plate for 18, 6, and 6 days, respectively. Wells were rinsed with MES (pH 6.0) buffer twice. Fresh MES buffer was reapplied to each well and incubated at 37 °C for 15 min. Each drug was individually tested from freshly prepared solutions in MES buffer (0.1 mM, total 0.3 mL) with the presence and the absence of 10 mM glycyl-proline (Gly-Pro). The solution was placed in each well and incubated at 37 °C for 60 min. Drug solution was removed and 3 mL of ice-cold PBS was immediately placed in each well. Each well was rinsed with 3 mL of cold-PBS twice and 0.5 mL of methanol/H2O (1:1) containing 0.1% TFA was placed in each well. The cell suspension was collected and transferred to a new tube. Those tubes were spun at 1,000 × g at 4 °C for 5 min. The supernatant was mixed with equal amount of water with either 0.1% formic acid or 0.1% ammonium hydroxide for LC-MS analysis. The cell pullets were used to determine protein amount with the Bio-Rad DC Protein Assay using bovine serum albumin as a standard.
as §3, with “The mobile phase consisted of 0.1% TFA/water (Solvent A) and 0.1% TFA/acetonitrile (Solvent B) for gemcitabine, gemcitabine prodrug and floxuridine prodrug. The mobile phase consisted of 0.1% ammonium hydroxide/water (Solvent A) and 0.1% ammonium hydroxide /acetonitrile (Solvent B) for floxuridine. The ESI probe was operated with a detector voltage of 1.5 kV, CDL temperature of 250 °C, heat block of 200 °C, and nebulizing gas flow of 1.2 mL/min in positive mode for gemcitabine prodrugs and their metabolites. The drying gas was N2 delivered at 0.1 MPa.” left out

[5] = 0.01 N HCl, 37 °C, read-out: 0.01 N HCl t1/2
[6] = SIF pH 6.0, 37 °C, read-out: SIF pH 6.0 t1/2
[7] = pH 7.4 phosphate buffer, 37 °C, read-out: Buffer pH 7.4 t1/2

| Compound | 0.01 N HCl t1/2 ([1]; 0.01 N HCl, 37 °C) [h] | SIF pH 6.0 t1/2 ([1]; SIF pH 6.0, 37 °C) [min] | Buffer pH 7.4 t1/2 ([1]; pH 7.4 phosphate buffer, 37 °C) [min] | Peff, mouse perfusion ([2]; perfusion buffer pH 6.0) | Peff, mouse perfusion ([2]; perfusion buffer pH 6.0, listed as gemcitabine) [cm/s] | parent drug, share of totally observed amount in plasma [3] | Parent drug, share of uptake [4] [%] | half-life [1, 5] [h] | half-life [1, 6] [h] | half-life [1, 7] [h] | fold higher membrane permeability than parent drug [2] [fold] | drug concentration in mouse plasma, rank among tested compounds ([3]; after in situ perfusion) | first metabolite (5-FU or cytosine) in plasma [3] | prodrug form, share of totally observed amount in plasma [3] [%] | Prodrug, share of uptake [4] [%] | Peff, mouse perfusion ([2]; perfusion buffer pH 6.0, listed as floxuridine) [cm/s] |
| --- | --- | --- | --- | --- | --- | --- | --- | --- | --- | --- | --- | --- | --- | --- | --- | --- |
| 2′,2′-difluoro-2′-deoxyuridine [Gemcitabine] | >2 | >120 | >120 | 0.2 ± 0.2 ×10^−5 cm/s | 2e-06 | 83% | 90 |  |  |  |  |  |  |  |  |  |
| NC(Cc1ccccc1)C(=O)NC(Cc1ccc(O)cc1)C(=O)OCC1OC(n2cc(F)c(=O)[nH]c2=O)CC1O [5′-L-Phenylalanyl-L-tyrosyl-floxuridine] |  |  |  | 1.9 ± 0.1 ×10^−5 cm/s |  |  |  | > 2 | > 2 | > 2 | 19.0 | highest drug concentration | not observed | 81 | 60 |  |
| O=c1[nH]c(=O)n([C@H]2C[C@H](O)[C@@H](CO)O2)cc1F [Floxuridine, 5-fluoro-2′-deoxyuridine] |  |  |  | 0.1 ± 0.8 ×10^−5 cm/s |  | only drug observed |  | > 2 | > 2 | > 2 |  |  |  |  |  | 1e-06 |
| Nc1ccn(C2OC(COC(=O)C(Cc3ccc(O)cc3)NC(=O)C(N)Cc3ccccc3)C(O)C2(F)F)c(=O)n1 [5′-L-Phenylalanyl-L-tyrosyl-gemcitabine] |  |  |  | 2.2 ± 0.4 ×10^−5 cm/s |  |  |  | > 2 | > 2 | 0.56 ± 0.0233 | 11.0 |  | one-third | 40 | 39 |  |
